The term IC50 denotes the midpoint of a concentration-inhibition curve.

Experimental findings from patent US7750145B2, “1-substituted-3-β-D-glucopyranosylated nitrogenous hetero-cyclic compounds and medicines containing the same” (Kissei Pharmaceutical Co., Ltd., priority 2004, dated 2010) are described below.

The target in one assay is T1, human SGLT2 (Homo sapiens, UniProt P31639).
T1 construct: expressed in transfected cells; host or cells: COS-7 cells, transient lipofection of pcDNA3.1(-) vector
T1 sequence (P31639 1-672): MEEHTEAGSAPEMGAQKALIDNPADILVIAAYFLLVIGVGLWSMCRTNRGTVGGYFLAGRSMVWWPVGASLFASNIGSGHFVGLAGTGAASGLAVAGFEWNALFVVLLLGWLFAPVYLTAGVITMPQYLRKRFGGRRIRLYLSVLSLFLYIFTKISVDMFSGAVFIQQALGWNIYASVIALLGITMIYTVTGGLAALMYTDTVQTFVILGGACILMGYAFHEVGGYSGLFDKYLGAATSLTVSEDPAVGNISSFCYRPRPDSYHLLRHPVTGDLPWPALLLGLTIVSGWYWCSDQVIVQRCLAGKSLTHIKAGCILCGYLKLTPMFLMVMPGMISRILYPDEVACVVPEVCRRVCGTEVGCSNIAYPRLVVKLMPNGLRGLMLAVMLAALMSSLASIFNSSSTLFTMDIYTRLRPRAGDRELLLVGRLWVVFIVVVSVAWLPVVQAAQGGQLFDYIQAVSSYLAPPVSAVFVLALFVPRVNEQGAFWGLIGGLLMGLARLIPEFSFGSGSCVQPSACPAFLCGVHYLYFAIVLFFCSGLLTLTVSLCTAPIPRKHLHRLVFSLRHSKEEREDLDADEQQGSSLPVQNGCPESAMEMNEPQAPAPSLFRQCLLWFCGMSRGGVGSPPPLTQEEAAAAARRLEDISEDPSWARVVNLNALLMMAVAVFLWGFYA
As to the kind of experiment: Inhibition of methyl-α-D-glucopyranoside uptake in COS-7 cells expressing human SGLT2. Particulars: 14C α-MG uptake, 1 mM α-MG, transfected COS-7 cells, 1 hour at 37° C.; read-out: hSGLT2 IC50. Type of assay: cell-based. On the procedure:
(§1) Assay for Inhibitory Effects on Human SGLT Activity
2) Cloning and Construction of the Vector Expressing Human SGLT2
The cDNA library was prepared for PCR amplification by reverse transcription from total RNA derived from human kidney (Ori gene) using oligo-dT as a primer. Using this cDNA library as a template, the DNA fragment coding 2 to 2039 bp of human SGLT2 (ACCESSION: M95549, M95299), which was reported by R. G. Wells et al., was amplified by PCR method and inserted into the multi-cloning site of pcDNA3.1(−) (Invitrogen). The DNA sequence inserted was perfectly matched to the previously reported sequence.
(§2) 3) Preparation of the Cells Expressing Human SGLT1 or SGLT2 […]
(§3) A mixture of non-labeled (Sigma) and ^14C-labeled α-MG (Amersham Pharmacia Biotech) was added to the uptake buffer (pH 7.4; containing 140 mM sodium chloride, 2 mM potassium chloride, 1 mM calcium chloride, 1 mM magnesium chloride, 10 mM 2-[4-(2-hydroxyethyl)-1-piperazinyl]ethane sulfonic acid and 5 mM tris(hydroxymethyl)aminomethane) at the final concentration of 1 mM. […] Radioactivity was measured by means of micro-scintillation counter TopCount (Packard). One hundred % was set to the difference between the uptake in the control group and the basal uptake, and the uptake of methyl α-D-glucopyranoside at each drug concentration was calculated. […]

A further assay has as its target T2, human SGLT1 (Homo sapiens, UniProt P13866).
T2 construct: expressed in transfected cells; host or cells: COS-7 cells, transient lipofection of pcDNA3.1(-) vector
T2 sequence (P13866 1-664): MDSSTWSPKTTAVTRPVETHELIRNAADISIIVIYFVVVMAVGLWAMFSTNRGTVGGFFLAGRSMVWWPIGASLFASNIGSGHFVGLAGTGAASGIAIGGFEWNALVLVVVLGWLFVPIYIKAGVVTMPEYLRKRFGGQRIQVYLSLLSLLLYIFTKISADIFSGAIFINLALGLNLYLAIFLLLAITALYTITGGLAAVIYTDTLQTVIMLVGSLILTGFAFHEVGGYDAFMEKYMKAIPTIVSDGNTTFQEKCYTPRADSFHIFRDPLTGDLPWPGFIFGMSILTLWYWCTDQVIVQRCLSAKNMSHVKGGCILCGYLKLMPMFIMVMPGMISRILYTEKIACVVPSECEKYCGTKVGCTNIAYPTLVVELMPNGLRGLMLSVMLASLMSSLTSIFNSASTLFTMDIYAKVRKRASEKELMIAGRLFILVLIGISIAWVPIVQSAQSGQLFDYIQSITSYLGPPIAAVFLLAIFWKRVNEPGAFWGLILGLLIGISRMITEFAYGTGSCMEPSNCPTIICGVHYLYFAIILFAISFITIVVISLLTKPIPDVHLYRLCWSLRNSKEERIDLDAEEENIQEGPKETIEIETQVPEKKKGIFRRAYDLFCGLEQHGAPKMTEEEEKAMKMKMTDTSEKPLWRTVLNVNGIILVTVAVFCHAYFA
As to the kind of experiment: Inhibition of methyl-α-D-glucopyranoside uptake in COS-7 cells expressing human SGLT1. It is filed as cell-based. The conditions noted are these: 14C α-MG uptake, 1 mM α-MG, transfected COS-7 cells, 1 hour at 37° C.; read-out: hSGLT1 IC50. The procedure:
as §1
1) Cloning and Construction of the Vector Expressing Human SGLT1
The cDNA library was prepared for PCR amplification by reverse transcription from total RNA derived from human small intestine (Ori gene) using oligo-dT as a primer. Using this cDNA library as a template, the DNA fragment coding 1 to 2005 bp of human SGLT1 (ACCESSION: M24847), which was reported by Hediger et al., was amplified by PCR method and inserted into the multi-cloning site of pcDNA3.1(−) (Invitrogen). The DNA sequence inserted was perfectly matched to the previously reported sequence.
as §2, §3

For `COc1ccc(Cn2cc([C@@H]3O[C@H](CO)[C@@H](O)[C@H](O)[C@H]3O)c3cc(C)ccc32)cc1` [Example 8], the IC50 on human SGLT2 stood at 6 nM.

In the case of `COc1ccc(Cn2cc([C@@H]3O[C@H](CO)[C@@H](O)[C@H](O)[C@H]3O)c3cccc(C)c32)cc1` [Example 6], the IC50 at human SGLT1 turned out to be 83 nM.
